Assays:
[1] = target: T1, NMDA (NR1/NR2A) receptors (Rattus norvegicus, UniProt P35439+Q00959); experiment: NMDA receptor two-electrode voltage clamp in oocytes at saturated drug concentration; assay type: cell-based; conditions: for NMDA % Direct Effect: drug response without receptor agonist; for NMDA % Direct Effect / NMDA % Agonist Effect: percent of control agonist peak, mean ±SEM, 5-6 oocytes, saturated drug; for NMDA % Agonist Effect: drug with glutamate and glycine; for NMDA Drug Response: drug+agonist versus control agonist peak; for NMDA receptor modulation (in words): saturating aqueous concentration; for direct effect on NMDA receptors (in words): without glutamate and glycine agonist
T1 construct: expressed in transfected cells; host or cells: Xenopus laevis oocytes (RNA injection, 1:1)
T1 sequence (Q00959 23-1464, other chains not shown): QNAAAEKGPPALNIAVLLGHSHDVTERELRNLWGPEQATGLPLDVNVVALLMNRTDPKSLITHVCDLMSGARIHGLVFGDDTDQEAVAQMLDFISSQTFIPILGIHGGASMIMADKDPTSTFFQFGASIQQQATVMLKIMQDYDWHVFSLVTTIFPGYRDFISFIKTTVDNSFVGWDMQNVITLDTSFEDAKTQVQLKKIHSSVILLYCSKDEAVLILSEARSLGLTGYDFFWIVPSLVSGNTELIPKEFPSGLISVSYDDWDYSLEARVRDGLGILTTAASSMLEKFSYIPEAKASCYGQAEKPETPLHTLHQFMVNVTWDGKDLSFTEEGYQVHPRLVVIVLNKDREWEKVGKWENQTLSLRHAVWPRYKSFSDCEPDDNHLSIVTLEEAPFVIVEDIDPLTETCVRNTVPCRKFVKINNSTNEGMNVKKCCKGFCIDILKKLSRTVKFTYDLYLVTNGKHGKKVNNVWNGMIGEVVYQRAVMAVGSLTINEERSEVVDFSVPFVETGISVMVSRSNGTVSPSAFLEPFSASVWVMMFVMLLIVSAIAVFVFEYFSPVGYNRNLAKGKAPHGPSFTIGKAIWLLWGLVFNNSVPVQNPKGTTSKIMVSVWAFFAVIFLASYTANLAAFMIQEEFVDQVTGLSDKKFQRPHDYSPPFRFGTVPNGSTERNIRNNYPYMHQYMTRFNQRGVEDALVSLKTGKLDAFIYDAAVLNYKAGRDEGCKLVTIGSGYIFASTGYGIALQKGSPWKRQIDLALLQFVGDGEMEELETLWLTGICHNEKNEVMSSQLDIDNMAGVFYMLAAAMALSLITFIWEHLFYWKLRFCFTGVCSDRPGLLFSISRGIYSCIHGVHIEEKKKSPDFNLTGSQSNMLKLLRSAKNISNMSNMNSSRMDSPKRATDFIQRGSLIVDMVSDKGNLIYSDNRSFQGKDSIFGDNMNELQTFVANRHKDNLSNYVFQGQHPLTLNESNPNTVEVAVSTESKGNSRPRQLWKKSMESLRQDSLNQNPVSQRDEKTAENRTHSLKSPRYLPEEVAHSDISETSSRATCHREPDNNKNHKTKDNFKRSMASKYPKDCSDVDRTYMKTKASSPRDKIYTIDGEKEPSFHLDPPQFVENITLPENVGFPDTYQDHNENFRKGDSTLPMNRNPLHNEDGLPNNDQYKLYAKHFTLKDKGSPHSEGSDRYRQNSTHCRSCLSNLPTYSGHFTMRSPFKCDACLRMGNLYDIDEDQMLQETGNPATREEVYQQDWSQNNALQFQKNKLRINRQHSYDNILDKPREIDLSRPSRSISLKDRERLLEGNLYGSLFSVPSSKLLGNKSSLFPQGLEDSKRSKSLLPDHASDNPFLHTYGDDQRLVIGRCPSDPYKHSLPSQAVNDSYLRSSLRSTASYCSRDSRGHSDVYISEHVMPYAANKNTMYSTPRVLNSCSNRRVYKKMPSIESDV
Description: (§1) GABAA (α1β2γ2s) or NMDA (NR1/NR2A) receptors were expressed in oocytes and studied using standard two-electrode voltage clamp techniques. Hydrocarbons from 14 different organic functional groups were studied at saturated concentrations, and compounds within each group differed only by the carbon number at the ω-position or within a saturated ring. An effect on GABAA or NMDA receptors was defined as a 10% or greater reversible current change from baseline that was statistically different from zero.
(§2) An ovary from tricaine-anesthetized Xenopus laevis frogs was surgically removed using a protocol approved by the Institutional Animal Care and Use Committee at the University of California, Davis. Following manual disruption of the ovarian lobule septae, the ovary was incubated in 0.2% Type I collagenase (Worthington Biochemical, Lakewood, N.J.) to defolliculate oocytes which were washed and stored in fresh and filtered modified Barth's solution composed of 88 mM NaCl, 1 mM KCl, 2.4 mM NaHCO3, 20 mM HEPES, 0.82 mM MgSO4, 0.33 mM Ca(NO3)2, 0.41 mM CaCl2, 5 mM sodium pyruvate, gentamycin, penicillin, streptomycin, and corrected to pH=7.4. All salts and antibiotics were A.C.S. grade (Fisher Scientific, Pittsburgh, Pa.).
(§3) Clones used were provided as a gift from Dr. R. A. Harris (University of Texas, Austin) and were sequenced and compared to references in the National Center for Biotechnology Information database to confirm the identity of each gene. GABAA receptors were expressed using clones for the human GABAA α1 and the rat GABAA β2 and γ2s subunits in pCIS-II vectors. […] In separate oocytes, glutamate receptors were expressed using rat NMDA NR1 clones in a pCDNA3 vector and rat NMDA NR2A clones in a Bluescript vector. RNA encoding each subunit was prepared using a commercial transcription kit (T7 mMessage mMachine, Ambion, Austin, Tex.) was mixed in a 1:1 ratio, and 1-10 ng of total RNA was injected into oocytes and studied 1-2 days later.
Briefly, baseline perfusion solutions were the same as for GABAA with the substitution of equimolar BaCl2 for calcium salts and the addition of 0.1 mM EGTA; this constituted barium frog Ringer's solution (BaFR). Agonist solutions for NMDA studies also contained 0.1 mM glutamate (E) and 0.01 mM glycine (G) to constitute a BaFREG solution.
The syringe pump and perfusion chamber apparatus as well as the clamp holding potential and baseline-agonist exposure protocols were identical to that described for the GABAA studies. The same test compounds, concentrations, and preparative methods were used in NMDA voltage clamp studies as in the GABAA voltage clamp studies (Table 2).
(§4) Modulating drug responses were calculated as the percent of the control (baseline) peak as follows: 100·ID/IB, where ID and IB were the peak currents measured during agonist+drug and agonist baseline perfusions, respectively. When present, direct receptor activation by a drug was similarly calculated as a percent of the agonist response. […] A lack of receptor response (cut-off) was defined as a<10% change from baseline current that was statistically indistinguishable from zero using a two-tailed Student t-test.

[2] = target: T2, GABAA (α1β2γ2s) receptors (UniProt P14867+P18508+P63138); experiment: GABAA receptor two-electrode voltage clamp in oocytes at saturated drug concentration; assay type: cell-based, human α1, rat β2 and γ2s; conditions: for GABAA % Direct Effect: drug response without receptor agonist; for GABAA % Direct Effect / GABAA % Agonist Effect: percent of control agonist peak, mean ±SEM, 5-6 oocytes, saturated drug; for GABAA % Agonist Effect: drug with γ-aminobutyric acid; for GABAA Drug Response: drug+agonist versus control agonist peak
T2 construct: expressed in transfected cells; host or cells: Xenopus laevis oocytes (intranuclear plasmid injection, α1:β2:γ2 = 1:1:10)
T2 sequence (P14867 28-456): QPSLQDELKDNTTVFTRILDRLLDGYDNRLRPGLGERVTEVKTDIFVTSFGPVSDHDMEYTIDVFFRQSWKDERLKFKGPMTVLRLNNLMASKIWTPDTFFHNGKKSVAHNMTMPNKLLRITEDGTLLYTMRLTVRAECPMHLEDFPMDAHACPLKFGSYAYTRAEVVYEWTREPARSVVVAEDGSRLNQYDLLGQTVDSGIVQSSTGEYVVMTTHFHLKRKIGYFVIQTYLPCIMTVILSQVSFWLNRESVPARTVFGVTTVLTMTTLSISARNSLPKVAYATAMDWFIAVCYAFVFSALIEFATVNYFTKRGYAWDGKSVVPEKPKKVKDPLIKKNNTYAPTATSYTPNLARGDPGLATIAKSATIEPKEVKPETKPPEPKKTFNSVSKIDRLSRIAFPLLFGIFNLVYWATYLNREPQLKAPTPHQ
T2 sequence (P63138 25-474 limits assumed): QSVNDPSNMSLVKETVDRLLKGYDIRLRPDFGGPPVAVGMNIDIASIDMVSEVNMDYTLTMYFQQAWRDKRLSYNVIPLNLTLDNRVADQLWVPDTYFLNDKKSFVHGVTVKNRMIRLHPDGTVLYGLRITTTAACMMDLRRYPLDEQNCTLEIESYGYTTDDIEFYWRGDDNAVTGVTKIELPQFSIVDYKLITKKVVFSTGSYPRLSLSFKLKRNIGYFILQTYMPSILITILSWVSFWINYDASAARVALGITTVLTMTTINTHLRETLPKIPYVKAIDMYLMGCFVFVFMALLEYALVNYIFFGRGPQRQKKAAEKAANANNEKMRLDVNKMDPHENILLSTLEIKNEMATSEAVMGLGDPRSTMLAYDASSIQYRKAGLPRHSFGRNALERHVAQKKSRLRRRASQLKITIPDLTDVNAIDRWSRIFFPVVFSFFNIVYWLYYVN
T2 sequence (P18508 39-466): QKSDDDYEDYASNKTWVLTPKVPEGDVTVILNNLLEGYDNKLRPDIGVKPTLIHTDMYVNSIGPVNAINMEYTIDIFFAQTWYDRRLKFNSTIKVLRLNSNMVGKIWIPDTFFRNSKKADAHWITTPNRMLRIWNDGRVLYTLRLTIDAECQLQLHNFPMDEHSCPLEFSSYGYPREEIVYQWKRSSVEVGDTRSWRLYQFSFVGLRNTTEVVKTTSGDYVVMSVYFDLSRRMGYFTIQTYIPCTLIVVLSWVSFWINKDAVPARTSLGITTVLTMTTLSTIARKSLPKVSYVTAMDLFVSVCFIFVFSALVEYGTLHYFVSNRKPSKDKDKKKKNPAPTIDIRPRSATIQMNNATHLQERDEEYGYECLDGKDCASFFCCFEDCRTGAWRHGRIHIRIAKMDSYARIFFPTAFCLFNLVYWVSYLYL
Description: as §1, §2, §3
Oocytes were studied in a 250 μL linear-flow perfusion chamber with solutions administered by syringe pump at 1.5 ml/min with gastight glass syringes and Teflon tubing. Oocyte GABAA currents were studied using standard two-electrode voltage clamping techniques at a holding potential of […] using a 250 μL channel linear-flow perfusion chamber with solutions administered by syringe pump at 1.5 mL/min.
After FR perfusion for 5 min, oocytes were exposed to 30 sec FR-GABA followed by another 5 min FR washout; this was repeated until stable GABAA-elicited peaks were obtained. Next, FR containing a saturated solution of the study drug (Table 2)—or for gaseous study compounds a vapor pressure equal to 90% of barometric pressure with balance oxygen—was used to perfuse the oocyte chamber for 2 min followed by perfusion with a FR-GABA solution containing the identical drug concentration for 30 sec.
as §4

Molecule | NMDA % Direct Effect [1] | NMDA % Agonist Effect [1] | GABAA % Direct Effect [2] | GABAA % Agonist Effect [2] | NMDA receptor modulation (in words) [1] | NMDA receptor current inhibition ([1]; hydrocarbons prior to the cut-off, saturated) | NMDA Drug Response [1] | GABAA Drug Response [2] | GABAA receptor modulation (in words) ([2]; saturating aqueous concentration) | direct effect on NMDA receptors (in words) [1]
CCc1cccc(CC)c1 [1,3-diethylbenzene] | none | 101 ± 2% | none | 305 ± 24% |  |  | 0 (no response (0) for drug+agonist responses that differ by <10% from the control agonist peak) | + (potentiation (+) for drug+agonist responses greater than the control agonist peak) |  | 
Cc1cccc(C)c1 [1,3-dimethylbenzene] | none | 58 ± 3% | none | 366 ± 21% |  |  |  | + (potentiation (+) for drug+agonist responses greater than the control agonist peak) |  | 
CCCCCCSCC [1-(ethylthio)-hexane] | none | 87 ± 1% | none | 350 ± 57% |  |  |  | + (potentiation (+) for drug+agonist responses greater than the control agonist peak) |  | 
CCCCCCCCSCC [1-(ethylthio)-octane] | none | 101 ± 1% | none | 120 ± 3% |  |  | 0 (no response (0) for drug+agonist responses that differ by <10% from the control agonist peak) | + (potentiation (+) for drug+agonist responses greater than the control agonist peak) |  | 
OCC(F)(F)C(F)(F)C(F)(F)C(F)(C(F)(F)F)C(F)(F)F [1-Hexanol, 2,2,3,3,4,4,5,6,6,6-decafluoro-5-(trifluoromethyl)-] |  |  |  |  | weak NMDA receptor antagonist |  |  |  | GABA-A receptor agonist | 
CCCCCCCCCCO [1-decanol] | none | 70 ± 3% | none | 386 ± 20% |  |  |  | + (potentiation (+) for drug+agonist responses greater than the control agonist peak) |  | 
CCCCCCCCCCCCO [1-dodecanol] | none | 98 ± 1% | none | 177 ± 4% |  |  | 0 (no response (0) for drug+agonist responses that differ by <10% from the control agonist peak) | + (potentiation (+) for drug+agonist responses greater than the control agonist peak) |  | 
CCCCCCCCCCCCCCCCCCCCN [1-eicosanamine] | none | 108 ± 1% | none | 166 ± 7% |  |  | 0 (no response (0) for drug+agonist responses that differ by <10% from the control agonist peak) | + (potentiation (+) for drug+agonist responses greater than the control agonist peak) |  | 
CCCCCCCCF [1-fluoroctane] | none | 98 ± 1% | none | 182 ± 18% |  |  | 0 (no response (0) for drug+agonist responses that differ by <10% from the control agonist peak) | + (potentiation (+) for drug+agonist responses greater than the control agonist peak) |  | 
CCCCCCF [1-fluorohexane] | none | 101 ± 1% | 11 ± 4% | 207 ± 13% |  |  | 0 (no response (0) for drug+agonist responses that differ by <10% from the control agonist peak) | + (potentiation (+) for drug+agonist responses greater than the control agonist peak) |  | 
C=CCCCC [1-hexene] | none | 97 ± 0% | none | 132 ± 2% |  |  | 0 (no response (0) for drug+agonist responses that differ by <10% from the control agonist peak) | + (potentiation (+) for drug+agonist responses greater than the control agonist peak) |  | 
CCCCCCCCCCCCCCCCCCN [1-octadecanamine] | none | 73 ± 4% | none | 146 ± 5% |  |  |  | + (potentiation (+) for drug+agonist responses greater than the control agonist peak) |  | 
C=CCCC [1-pentene] | none | 69 ± 1% | 2 ± 3% | 453 ± 38% |  |  |  | + (potentiation (+) for drug+agonist responses greater than the control agonist peak) |  | 
CN1CCOCC1 [4-methylmorpholine] |  |  |  |  |  |  |  |  |  | direct activation of NMDA receptors
N-methylpiperadine |  |  |  |  |  |  |  |  |  | direct activation of NMDA receptors

Now from value to molecule, other results behind:

NMDA % Direct Effect [1] | NMDA % Agonist Effect [1] | GABAA % Direct Effect [2] | GABAA % Agonist Effect [2] | NMDA receptor modulation (in words) [1] | NMDA receptor current inhibition ([1]; hydrocarbons prior to the cut-off, saturated) | Molecule | NMDA Drug Response [1] | GABAA Drug Response [2] | GABAA receptor modulation (in words) ([2]; saturating aqueous concentration) | direct effect on NMDA receptors (in words) [1]
none | 76 ± 2% | none | 539 ± 35% |  |  | CCCCCF [1-fluoropentane] |  | + (potentiation (+) for drug+agonist responses greater than the control agonist peak) |  | 
none | 68 ± 10% | none | 172 ± 8% |  |  | C#CCCCCC [1-heptyne] |  | + (potentiation (+) for drug+agonist responses greater than the control agonist peak) |  | 
none | 102 ± 3% | 8 ± 2% | 290 ± 41% | did not |  | CCCCCCS [1-hexanethiol] | 0 (no response (0) for drug+agonist responses that differ by <10% from the control agonist peak) | + (potentiation (+) for drug+agonist responses greater than the control agonist peak) |  | 
none | 41 ± 6% | 5 ± 2% | 418 ± 21% |  |  | C#CCCCC [1-hexyne] |  | + (potentiation (+) for drug+agonist responses greater than the control agonist peak) |  | 
none | 96 ± 2% | none | 259 ± 11% |  |  | C#CCCCCCC [1-octyne] | 0 (no response (0) for drug+agonist responses that differ by <10% from the control agonist peak) | + (potentiation (+) for drug+agonist responses greater than the control agonist peak) |  | 
none | 85 ± 4% | 22 ± 8% | 466 ± 57% | inhibited NMDA receptors | 15% | CCCCCS [1-pentanethiol] |  | + (potentiation (+) for drug+agonist responses greater than the control agonist peak) |  | 
none | 101 ± 2% | none | 181 ± 13% |  |  | CCCCCCCCCCCO [1-undecanol] | 0 (no response (0) for drug+agonist responses that differ by <10% from the control agonist peak) | + (potentiation (+) for drug+agonist responses greater than the control agonist peak) |  | 

From patent US10010525B2, “Methods of inducing anesthesia” (The Regents of the University of California, priority 2012, dated 2018)
